Measurements: US20230047102A1, “PHARMACEUTICAL COMPOSITIONS COMPRISING N-[1-(5-CYANO-PYRIDIN-2-YLMETHYL)-1H-PYRAZOL-3-YL]-2-[4-(1-TRIFLUOROMETHYL-CYCLOPROPYL)-PHENYL]-ACETAMIDE” (Idorsia Pharmaceuticals Ltd, priority 2019, published 2023)

Key:
[1] = subject to certain variations of this value found in the literature; cited from earlier work
[2] = Steady-state exposure with 60 mg once-daily dose in adults; assay type: in vivo, human; details: 60 mg once-daily dose at steady state in adults; 95% confidence interval 11.2, 16.7
Experimental: The starting dose of study treatment for the sentinel cohort (dose level 1) will be based on body weight categories (based on subjects' body weight on Day 1), as detailed in the table below. This study intends to target exposures equivalent to those observed with a 60 mg once-daily dose at steady state in adults (area under the concentration versus time curve during 1 dosing interval [AUCT] of 13.7 μgxh/mL [95% confidence interval (CD: 11.2, 16.7 μgxh/m14. Based on the exposure data obtained from the sentinel cohort, the doses may be adjusted if required to achieve the targeted exposure in the main cohort.

Poloxamer 188
hydrophilic-lipophilic balance (HLB) value [1]: about 29

CCCCCCCCCCCCOS(=O)(=O)[O-].[Na+] [SLS, Sodium lauryl sulfate]
hydrophilic-lipophilic balance (HLB) value [1]: about 40

N#Cc1ccc(Cn2ccc(NC(=O)Cc3ccc(C4(C(F)(F)F)CC4)cc3)n2)nc1 [NBI-827104, N-[1-(5-cyano-pyridin-2-ylmethyl)-1H-pyrazol-3-yl]-2-[4-(1-trifluoromethyl-cyclopropyl)-phenyl]-acetamide]
area under the concentration versus time curve during 1 dosing interval [AUCT] [2]: 13.7 μgxh/mL
